Laboratory results: PubChem BioAssay (NCI)
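48-hour exposure; five concentrations; linearly interpolated endpoints. Abbreviation: GI50, concentration required for 50% inhibition of growth. TGI denotes the concentration required for complete inhibition of growth.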

Experiments:
Test in all cases: NCI-60 cell line screen, 48 h
KM12 colon = test system: KM12 colon
SK-OV-3 ovarian = test system: SK-OV-3 ovarian
OVCAR-3 ovarian = test system: OVCAR-3 ovarian
SF-539 CNS = test system: SF-539 CNS
HS 578T breast = test system: HS 578T breast
HCC-2998 colon = test system: HCC-2998 colon
SK-MEL-2 melanoma = test system: SK-MEL-2 melanoma
MCF7 breast = test system: MCF7 breast
MALME-3M melanoma = test system: MALME-3M melanoma
OVCAR-5 ovarian = test system: OVCAR-5 ovarian
MDA-MB-231 breast = test system: MDA-MB-231 breast
OVCAR-4 ovarian = test system: OVCAR-4 ovarian
SR leukemia = test system: SR leukemia
SF-295 CNS = test system: SF-295 CNS
NCI-H460 lung = test system: NCI-H460 lung
786-0 renal = test system: 786-0 renal
SNB-75 CNS = test system: SNB-75 CNS
DU-145 prostate = test system: DU-145 prostate
A549 NSCLC = test system: A549 NSCLC
HCT-116 colon = test system: HCT-116 colon
M14 melanoma = test system: M14 melanoma
EKVX NSCLC = test system: EKVX NSCLC
U251 CNS = test system: U251 CNS
CAKI-1 renal = test system: CAKI-1 renal
OVCAR-8 ovarian = test system: OVCAR-8 ovarian
UACC-257 melanoma = test system: UACC-257 melanoma
SN12C renal = test system: SN12C renal
NCI-H522 lung = test system: NCI-H522 lung
HOP-62 NSCLC = test system: HOP-62 NSCLC
HCT-15 colon = test system: HCT-15 colon
COLO 205 colon = test system: COLO 205 colon
HL-60(TB) leukemia = test system: HL-60(TB) leukemia
HOP-92 NSCLC = test system: HOP-92 NSCLC
SW-620 colon = test system: SW-620 colon
SF-268 CNS = test system: SF-268 CNS
RPMI-8226 leukemia = test system: RPMI-8226 leukemia
UO-31 renal = test system: UO-31 renal
NCI-H226 lung = test system: NCI-H226 lung
T-47D breast = test system: T-47D breast
SK-MEL-28 melanoma = test system: SK-MEL-28 melanoma
HT29 colon = test system: HT29 colon
A498 renal = test system: A498 renal
ACHN renal = test system: ACHN renal
PC-3 prostate = test system: PC-3 prostate
RXF 393 renal = test system: RXF 393 renal
K-562 leukemia = test system: K-562 leukemia
MOLT-4 leukemia = test system: MOLT-4 leukemia
NCI/ADR-RES ovarian = test system: NCI/ADR-RES ovarian
TK-10 renal = test system: TK-10 renal
MDA-MB-435 = test system: MDA-MB-435
BT-549 breast = test system: BT-549 breast
CCRF-CEM leukemia = test system: CCRF-CEM leukemia
IGROV1 ovarian = test system: IGROV1 ovarian
UACC-62 melanoma = test system: UACC-62 melanoma
LOX IMVI melanoma = test system: LOX IMVI melanoma
NCI-H23 lung = test system: NCI-H23 lung
SK-MEL-5 melanoma = test system: SK-MEL-5 melanoma
SNB-19 CNS = test system: SNB-19 CNS

## CCOc1ccc(-n2cc(-c3ccc(N(C)C)cc3)[n+]3c2CCCCC3)cc1
KM12 colon
  GI50: 0.168 µM
  TGI: 27.8 µM
SK-OV-3 ovarian
  GI50: 1.61 µM
  TGI: 7.41 µM
OVCAR-3 ovarian
  GI50: 0.377 µM
  TGI: 60.2 µM
SF-539 CNS
  GI50: 2.26 µM
  TGI: > 100 µM
HS 578T breast
  GI50: 3.33 µM
  TGI: > 100 µM
HCC-2998 colon
  GI50: 0.188 µM
  TGI: > 100 µM
SK-MEL-2 melanoma
  GI50: 0.286 µM
  TGI: 6.32 µM
MCF7 breast
  GI50: 0.14 µM
  TGI: > 100 µM
MALME-3M melanoma
  GI50: 0.269 µM
  TGI: 14.1 µM
OVCAR-5 ovarian
  GI50: 3.74 µM
  TGI: > 100 µM
MDA-MB-231 breast
  GI50: 1.93 µM
  TGI: > 27.8 µM
OVCAR-4 ovarian
  GI50: 0.103 µM
  TGI: > 100 µM
SR leukemia
  GI50: 0.978 µM
  TGI: 29.4 µM
SF-295 CNS
  GI50: 0.618 µM
  TGI: 5.43 µM
NCI-H460 lung
  GI50: 0.349 µM
  TGI: > 38 µM
786-0 renal
  GI50: 2.69 µM
  TGI: > 100 µM
SNB-75 CNS
  GI50: 0.906 µM
  TGI: 17.7 µM
DU-145 prostate
  GI50: 1.82 µM
  TGI: > 100 µM
A549 NSCLC
  GI50: 1.88 µM
  TGI: > 100 µM
HCT-116 colon
  GI50: 0.267 µM
  TGI: > 100 µM
M14 melanoma
  GI50: 1.46 µM
  TGI: 33.8 µM
EKVX NSCLC
  GI50: 0.244 µM
  TGI: > 100 µM
U251 CNS
  GI50: 0.312 µM
  TGI: > 100 µM
CAKI-1 renal
  GI50: 10.4 µM
  TGI: > 100 µM
OVCAR-8 ovarian
  GI50: 1.34 µM
  TGI: > 100 µM
UACC-257 melanoma
  GI50: 0.12 µM
  TGI: 2.44 µM
SN12C renal
  GI50: 0.891 µM
  TGI: 19 µM
NCI-H522 lung
  GI50: 0.125 µM
  TGI: 3.91 µM
HOP-62 NSCLC
  GI50: 2.3 µM
  TGI: > 77.9 µM
HCT-15 colon
  GI50: 10.1 µM
  TGI: > 100 µM
COLO 205 colon
  GI50: 0.197 µM
  TGI: 1.73 µM
HL-60(TB) leukemia
  GI50: 0.164 µM
  TGI: 1.53 µM
HOP-92 NSCLC
  GI50: 1.14 µM
  TGI: 6.43 µM
SW-620 colon
  GI50: 2.21 µM
  TGI: > 100 µM
SF-268 CNS
  GI50: 2.2 µM
  TGI: > 100 µM
RPMI-8226 leukemia
  GI50: 0.0567 µM
  TGI: > 24.9 µM
UO-31 renal
  GI50: 4.94 µM
  TGI: 68.5 µM
NCI-H226 lung
  GI50: 1.56 µM
  TGI: > 100 µM
T-47D breast
  GI50: 0.0692 µM
SK-MEL-28 melanoma
  GI50: 0.841 µM
  TGI: > 81.9 µM
HT29 colon
  GI50: 0.609 µM
  TGI: > 24.7 µM
A498 renal
  GI50: 1.22 µM
  TGI: 8.44 µM
ACHN renal
  GI50: 2.63 µM
  TGI: > 100 µM
PC-3 prostate
  GI50: 0.277 µM
  TGI: > 100 µM
RXF 393 renal
  GI50: 4.51 µM
  TGI: > 90.3 µM
K-562 leukemia
  GI50: 0.128 µM
  TGI: > 100 µM
MOLT-4 leukemia
  GI50: 1 µM
  TGI: 26.5 µM
NCI/ADR-RES ovarian
  GI50: 31.1 µM
  TGI: > 100 µM
TK-10 renal
  GI50: 0.827 µM
  TGI: 49 µM
MDA-MB-435
  GI50: 0.217 µM
  TGI: 14.4 µM
BT-549 breast
  GI50: 0.406 µM
  TGI: 29.1 µM
CCRF-CEM leukemia
  GI50: 1.08 µM
  TGI: > 100 µM
IGROV1 ovarian
  GI50: 0.923 µM
  TGI: > 100 µM
UACC-62 melanoma
  GI50: 0.199 µM
  TGI: 13.5 µM
LOX IMVI melanoma
  GI50: 0.359 µM
  TGI: > 65.6 µM
NCI-H23 lung
  GI50: 0.0935 µM
  TGI: > 43 µM
SK-MEL-5 melanoma
  GI50: 0.0958 µM
  TGI: 0.475 µM
SNB-19 CNS
  GI50: 0.452 µM
  TGI: > 100 µM

## Clc1ccc2c(NCCCNCc3ccc4c(c3)OCO4)ccnc2c1
KM12 colon
  GI50: 3.86 µM
  TGI: 15.1 µM
SK-OV-3 ovarian
  GI50: 14.7 µM
  TGI: 29.3 µM
OVCAR-3 ovarian
  GI50: 5.14 µM
  TGI: 18.7 µM
SF-539 CNS
  GI50: 1.85 µM
  TGI: 3.41 µM
HS 578T breast
  GI50: 2.99 µM
  TGI: 11.1 µM
HCC-2998 colon
  GI50: 2.03 µM
  TGI: 5.25 µM
SK-MEL-2 melanoma
  GI50: 2.03 µM
  TGI: 4.56 µM
MCF7 breast
  GI50: 2.89 µM
  TGI: 13 µM
MALME-3M melanoma
  GI50: 1.86 µM
  TGI: 3.48 µM
OVCAR-5 ovarian
  GI50: 5.41 µM
  TGI: 18.8 µM
MDA-MB-231 breast
  GI50: 1.72 µM
  TGI: 5.78 µM
OVCAR-4 ovarian
  GI50: 10.8 µM
  TGI: 24.8 µM
SR leukemia
  GI50: 1.99 µM
  TGI: 4.67 µM
SF-295 CNS
  GI50: 2.34 µM
  TGI: 7.11 µM
NCI-H460 lung
  GI50: 3.61 µM
  TGI: 12.1 µM
786-0 renal
  GI50: 2.88 µM
  TGI: 12 µM
SNB-75 CNS
  GI50: 1.52 µM
  TGI: 3.37 µM
A549 NSCLC
  GI50: 9.47 µM
  TGI: 22.8 µM
HCT-116 colon
  GI50: 2.03 µM
  TGI: 8.82 µM
M14 melanoma
  GI50: 1.74 µM
  TGI: 3.42 µM
EKVX NSCLC
  GI50: 9.4 µM
  TGI: 24 µM
U251 CNS
  GI50: 2.68 µM
  TGI: 7.11 µM
OVCAR-8 ovarian
  GI50: 3.64 µM
  TGI: 13.1 µM
UACC-257 melanoma
  GI50: 1.91 µM
  TGI: 3.44 µM
SN12C renal
  GI50: 8.26 µM
  TGI: 21.6 µM
NCI-H522 lung
  GI50: 2.44 µM
  TGI: 8.01 µM
HOP-62 NSCLC
  GI50: 11.5 µM
  TGI: 24.2 µM
HCT-15 colon
  GI50: 2.42 µM
  TGI: 7.85 µM
COLO 205 colon
  GI50: 1.73 µM
  TGI: 3.48 µM
HL-60(TB) leukemia
  GI50: 2.22 µM
  TGI: 4.79 µM
HOP-92 NSCLC
  GI50: 0.739 µM
  TGI: 4.74 µM
SW-620 colon
  GI50: 2.96 µM
  TGI: 11.1 µM
SF-268 CNS
  GI50: 3.12 µM
  TGI: 12.7 µM
RPMI-8226 leukemia
  GI50: 2.31 µM
  TGI: 6.16 µM
UO-31 renal
  GI50: 1.41 µM
  TGI: 3.1 µM
NCI-H226 lung
  GI50: 17.8 µM
  TGI: 40.9 µM
T-47D breast
  GI50: 2.11 µM
  TGI: 5.26 µM
SK-MEL-28 melanoma
  GI50: 1.86 µM
  TGI: 3.57 µM
HT29 colon
  GI50: 2.23 µM
  TGI: 6.85 µM
A498 renal
  GI50: 14.4 µM
  TGI: 27.6 µM
ACHN renal
  GI50: 3.45 µM
  TGI: 12 µM
PC-3 prostate
  GI50: 4.08 µM
  TGI: 17.2 µM
RXF 393 renal
  GI50: 1.87 µM
  TGI: 5.07 µM
K-562 leukemia
  GI50: 2.19 µM
  TGI: 7.63 µM
MOLT-4 leukemia
  GI50: 2.68 µM
  TGI: 10.2 µM
NCI/ADR-RES ovarian
  GI50: 4 µM
  TGI: 18.4 µM
TK-10 renal
  GI50: 2.19 µM
  TGI: 5.54 µM
MDA-MB-435
  GI50: 1.68 µM
  TGI: 3.29 µM
BT-549 breast
  GI50: 4.47 µM
  TGI: 17.7 µM
CCRF-CEM leukemia
  GI50: 4.62 µM
  TGI: 19.3 µM
IGROV1 ovarian
  GI50: 5.52 µM
  TGI: 20.9 µM
UACC-62 melanoma
  GI50: 2.02 µM
  TGI: 3.89 µM
LOX IMVI melanoma
  GI50: 1.91 µM
  TGI: 4.41 µM
NCI-H23 lung
  GI50: 8.59 µM
  TGI: 23.8 µM
SK-MEL-5 melanoma
  GI50: 1.74 µM
  TGI: 3.13 µM
SNB-19 CNS
  GI50: 4.79 µM
  TGI: 16.9 µM
